We go through one compound from ChEMBL document CHEMBL5346899, “PKM2/PDK1 dual-targeted shikonin derivatives restore the sensitivity of EGFR-mutated NSCLC cells to gefitinib by remodeling glucose metabolism” (Eur J Med Chem, 2023).

Activity calls are given as the source filed them. The rule behind the calls is not given here.

Assay [1] concerns NCI-H1299. In words: Induction of apoptosis in human NCI-H1299 cells assessed as live cells at 500 micromol/L incubated for 24 hrs in presence of AZD7545 by Annexin V-FITC/PI staining based analysis (reference value: 96.6%). It is filed as functional. The note with it: dose 500 µmol/L, at 500 µM.
In assay [2] the test system is NCI-H1299. In words: Antitumor activity against human NCI-H1299 cells xenografted in mouse assessed as pathological damage to tumor tissue administered in presence of AZD7545. It is filed as functional. In general terms: In xenograft studies the graft and the host belong to different species.
For assay [3], the system named is NCI-H1299. In words: Induction of apoptosis in human NCI-H1299 cells assessed as late apoptotic cells at 500 micromol/L incubated for 24 hrs by Annexin V-FITC/PI staining based analysis (reference value: 2.63%). It is filed as functional. The conditions noted are these: dose 500 µmol/L, at 500 µM.
For assay [4], the system named is NCI-H1299. In words: Inhibition of glycolysis in human NCI-H1299 cells assessed as reduction in lactate production incubated for 1 hrs in presence of AZD7545 by colorimetric assay. It is filed as functional, cell-based.
The subject of assay [5] is NCI-H1299. In words: Induction of apoptosis in human NCI-H1299 cells assessed as live cells at 500 micromol/L incubated for 24 hrs by Annexin V-FITC/PI staining based analysis (reference value: 96.6%). It is filed as functional. The conditions noted are these: dose 500 µmol/L, at 500 µM.
The test system of assay [6] is NCI-H1299. The assay is described as follows: Synergistic induction of oxidative phosphorylation in human NCI-H1299 cells assessed as increase in ATP production in presence of AZD7545 by luminescence based assay. It is filed as functional, cell-based.
Assay [7] deals with NCI-H1299. The assay is described as follows: Synergistic antiproliferative activity against human NCI-H1299 cells assessed as cell growth inhibition at 500 micromol/L incubated for 24 hrs in presence of AZD7545 by CCK-8 analysis. It is filed as functional, cell-based. The conditions noted are these: dose 500.0 µmol/L.
Assay [8] deals with NCI-H1299. In words: Inhibition of glycolysis in human NCI-H1299 cells assessed as reduction in glucose consumption incubated for 24 hrs in presence of AZD7545 by colorimetric assay. It is filed as functional, cell-based.
In assay [9] the test system is NCI-H1299. The assay is described as follows: Induction of apoptosis in human NCI-H1299 cells assessed as early apoptotic cells at 500 micromol/L incubated for 24 hrs in presence of AZD7545 by Annexin V-FITC/PI staining based analysis (reference value: 0.772%). It is filed as functional. The note with it: dose 500 µmol/L, at 500 µM.
Assay [10] concerns NCI-H1299. In words: Induction of apoptosis in human NCI-H1299 cells assessed as early apoptotic cells at 500 micromol/L incubated for 24 hrs by Annexin V-FITC/PI staining based analysis (reference value: 0.772%). The note with it: dose 500 µmol/L, at 500 µM. It is filed as functional.
The subject of assay [11] is NCI-H1299. The assay is described as follows: Induction of apoptosis in human NCI-H1299 cells assessed as late apoptotic cells at 500 micromol/L incubated for 24 hrs in presence of AZD7545 by Annexin V-FITC/PI staining based analysis (reference value: 2.63%). It is filed as functional. The note with it: dose 500 µmol/L, at 500 µM.
Assay [12] relates to NCI-H1299. In words: Synergistic inhibition of NADPH production in human NCI-H1299 cells incubated for 2 hrs in presence of AZD7545 by NADP+/NADPH assay. It is filed as functional, cell-based.
In assay [13] the test system is NCI-H1299. In words: Induction of apoptosis in human NCI-H1299 cells assessed as dead cells at 500 micromol/L incubated for 24 hrs by Annexin V-FITC/PI staining based analysis (reference value: 0.021%). It is filed as functional. The conditions noted are these: dose 500 µmol/L, at 500 µM.
For assay [14], the system named is NCI-H1299. In words: Induction of apoptosis in human NCI-H1299 cells assessed as dead cells at 500 micromol/L incubated for 24 hrs in presence of AZD7545 by Annexin V-FITC/PI staining based analysis (reference value: 0.021%). It is filed as functional. The note with it: dose 500 µmol/L, at 500 µM.

Take `Cn1c2cc([S+](C)[O-])sc2c2cnn(Cc3cccc(N)c3)c(=O)c21` (centres undefined): the Activity in assay [1] was 20.6%; in assay [3], 2.11%; in assay [5] it was 97%; in assay [9], 7.63%; in assay [10] it was 0.923%; in assay [11], 71.7%. Moreover, the Activity in assay [13] and in [14] was 0% in each case. The result in [2], in [6] and in assay [7] was Active. In addition, the inhibition result in assay [4], in [8] and in [12] was “Active” each time.
